Measurements published in ChEMBL document CHEMBL3862023, “Synthesis of N-aryl and N-arylcarbamoylamino derivatives of 1,3-diazinane-5-carboxamide and their activity against glioblastoma LN-229 cell line” (Bioorg Med Chem, 2016).
≈ marks a conversion by molar mass, not a printed value.

Experiments:
[1] = Cytotoxicity against human LN229 cells assessed as concentration required for induction of cell death after 24 hrs by crystal violet staining based light microscopic analysis; type: functional, LN-229
[2] = Solubility of the compound in DMSO; type: physicochemical
[3] = Solubility of the compound in CHCl3/TFA; type: physicochemical
[4] = Solubility of the compound in water; type: physicochemical
[5] = 1-Octanol-water distribution coefficient, log P of compound; type: physicochemical
[6] = Solubility of the compound in chloroform; type: physicochemical
[7] = Solubility of the compound in isopropanol; type: physicochemical
[8] = Solubility of the compound in ethanol; type: physicochemical
[9] = Solubility of the compound in DMSO/TFA; type: physicochemical
[10] = Solubility of the compound in trifluoroacetic acid; type: physicochemical
[11] = Solubility of compound in 1% DMSO at 100 mg/ml; type: physicochemical

Row | Compound | Activity [1] [µg/mL] | solubility [2] | solubility [3] | solubility [4] [µg/mL] | logP [5] | solubility [6] | solubility [7] | solubility [8] | solubility [9] | solubility [10] | solubility [11]
1 | CN1C(=O)C(C(=O)NNC(=O)Nc2ccc(Cl)c(Cl)c2)C(=O)N(C)C1=O | 1 | Insoluble | Insoluble | 500 (≈ 1240 µM) | 0.73 | Insoluble | Insoluble | Insoluble | Insoluble | Insoluble | Insoluble
2 | CN1C(=O)C(C(=O)NNC(=O)Nc2ccc(C#N)cc2)C(=O)N(C)C1=O | 100 | Insoluble | Insoluble | – | – | Insoluble | Insoluble | Insoluble | Insoluble | Insoluble | –
3 | CN1C(=O)NC(=O)C(C(=O)NNC(=O)Nc2ccc([N+](=O)[O-])cc2)C1=O (stereo not given) | 100 | Insoluble | Insoluble | – | – | Insoluble | Insoluble | Insoluble | Insoluble | Insoluble | –
4 | O=C(NNC(=O)C1C(=O)NC(=O)N(c2ccccc2)C1=O)Nc1ccc(Cl)cc1 (stereo not given) | 100 | Insoluble | Insoluble | – | – | Insoluble | Insoluble | Insoluble | Insoluble | Insoluble | –
5 | CN1C(=O)C(C(=O)NNC(=O)Nc2ccc(Cl)cc2)C(=O)N(C)C1=O | 10 | Insoluble | Insoluble | – | – | Insoluble | Insoluble | Insoluble | Insoluble | Insoluble | –
6 | CN1C(=O)C(C(=O)Nc2ccccc2)C(=O)N(C)C1=O | 100 | – | – | 140 (≈ 509 µM) | 0.4 | – | – | – | – | – | Insoluble
7 | O=C(NNC(=O)C1C(=O)NC(=O)N(c2ccccc2)C1=O)Nc1ccc([N+](=O)[O-])cc1 (stereo not given) | 100 | Insoluble | Insoluble | – | – | Insoluble | Insoluble | Insoluble | Insoluble | Insoluble | –
8 | N#Cc1ccc(NC(=O)NNC(=O)C2C(=O)NC(=O)N(c3ccccc3)C2=O)cc1 (stereo not given) | 100 | Insoluble | Insoluble | – | – | Insoluble | Insoluble | Insoluble | Insoluble | Insoluble | –
9 | CN1C(=O)C(C(=O)NNC(=O)Nc2ccc([N+](=O)[O-])cc2)C(=O)N(C)C1=O | 10 | Insoluble | Insoluble | – | – | Insoluble | Insoluble | Insoluble | Insoluble | Insoluble | –
10 | CN1C(=O)C(C(=O)Nc2ccc(Cl)cc2)C(=O)N(C)C1=O | 10 | – | – | 130 (≈ 420 µM) | 1.18 | – | – | – | – | – | Insoluble
11 | O=C1NC(=O)C(C(=O)NNC(=O)Nc2ccc(Cl)cc2)C(=O)N1 | 100 | Insoluble | Soluble | – | – | Insoluble | Insoluble | Insoluble | Soluble | Soluble | –
12 | CN1C(=O)NC(=O)C(C(=O)NNC(=O)Nc2ccc(O)cc2)C1=O (stereo not given) | – | Insoluble | Insoluble | 70 (≈ 209 µM) | 1.08 | Insoluble | Insoluble | Insoluble | Insoluble | Insoluble | Insoluble
13 | CN1C(=O)C(C(=O)NNC(=O)Nc2ccc(F)cc2)C(=O)N(C)C1=O | 100 | Insoluble | Insoluble | – | – | Insoluble | Insoluble | Insoluble | Insoluble | Insoluble | –
14 | O=C1NC(=O)C(C(=O)NNC(=O)Nc2ccccc2)C(=O)N1 | 100 | Insoluble | Soluble | – | – | Insoluble | Insoluble | Insoluble | Soluble | Soluble | –
15 | CN1C(=O)C(C(=O)NNC(=O)Nc2ccc(O)c([N+](=O)[O-])c2)C(=O)N(C)C1=O | 10 | Insoluble | Insoluble | – | – | Insoluble | Insoluble | Insoluble | Insoluble | Insoluble | –
16 | CN1C(=O)C(C(=O)NNC(=O)Nc2ccc(O)cc2)C(=O)N(C)C1=O | 10 | Insoluble | Insoluble | – | – | Insoluble | Insoluble | Insoluble | Insoluble | Insoluble | –
